Results: DBAASP
Values after ≈ are worked out from the molar mass of the structure shown. Values joined by “and” are separate entries in the source; they are usually repeats but may differ in a detail not shown here. Equal values may be shown once.

How the values were obtained:
Experiment in all cases: ≥ marks a high value that may be exact or a test limit, other limits are often not marked, values filed in µg/mL are converted to µM
[1] = test system: Escherichia coli NCTC 10418
[2] = test system: Enterococcus faecalis NCTC 12697
[3] = test system: Staphylococcus aureus ATCC 12493
[4] = test system: Staphylococcus aureus NCTC 10788
[5] = test system: Pseudomonas aeruginosa ATCC 27853
[6] = test system: Candida albicans NCPF 1467
Candida albicans CA1 = test system: Candida albicans CA1
[7] = test system: Candida krusei ATCC 40147
[8] = test system: Candida krusei ATCC 40095
[9] = test system: Candida parapsilosis ATCC 90018
[10] = test system: Klebsiella pneumoniae ATCC 13866
[11] = test system: Staphylococcus aureus HNCMO 112011
[12] = test system: Acinetobacter baumannii ATCC 17978
[13] = test system: Escherichia coli ATCC 8739
[14] = test system: Pseudomonas putida NBRC 100650
[15] = test system: Aspergillus oryzae NBRC 100959
[16] = test system: Staphylococcus epidermidis NBRC 12993
[17] = test system: Candida viswanathii NBRC 10321
[18] = test system: Micrococcus luteus NBRC 3333
[19] = test system: Escherichia coli NBRC 3972
[20] = test system: Staphylococcus aureus ATCC 43300
[21] = test system: Lacticaseibacillus rhamnosus 1.0386
[22] = test system: Lacticaseibacillus rhamnosus 1.0385
[23] = test system: Staphylococcus aureus ATCC 29213
[24] = test system: Lacticaseibacillus rhamnosus 1.0925
[25] = test system: Lacticaseibacillus rhamnosus 7469
[26] = test system: Lactiplantibacillus plantarum 8014
[27] = test system: Escherichia coli ATCC 25922
Escherichia coli UB1005 = test system: Escherichia coli UB1005
[28] = test system: Lacticaseibacillus rhamnosus 1.0911
[29] = test system: Staphylococcus epidermidis ATCC 12228
Pasteurella multocida = test system: Pasteurella multocida
[30] = test system: Streptococcus pneumoniae ATCC 49619
[31] = test system: Streptococcus lutetiensis
Streptococcus oralis = test system: Streptococcus oralis
[32] = test system: Streptococcus agalactiae ATCC 12386
Listeria monocytogenes = test system: Listeria monocytogenes
[33] = test system: Streptococcus pyogenes ATCC 19615
Streptococcus mutans = test system: Streptococcus mutans
Streptococcus equi = test system: Streptococcus equi
Klebsiella pneumoniae = test system: Klebsiella pneumoniae
[34] = test system: Streptococcus dysgalactiae
Staphylococcus aureus MR = test system: Staphylococcus aureus MR
Candida glabrata = test system: Candida glabrata
Streptococcus salivarius = test system: Streptococcus salivarius
[35] = test system: Candida parapsilosis ATCC 22019
Candida krusei ATCC 6258 = test system: Candida krusei ATCC 6258
Candida albicans = test system: Candida albicans

In the case of `CC[C@H](C)[C@H](NC(=O)[C@@H](NC(=O)CNC(=O)[C@@H]1CCCN1C(=O)[C@@H](NC(=O)[C@@H](NC(=O)[C@H](CC(N)=O)NC(=O)[C@H](C)NC(=O)[C@H](C)NC(=O)[C@@H](NC(=O)[C@H](CCCCN)NC(=O)[C@H](CC(C)C)NC(=O)[C@@H](NC(=O)CNC(=O)[C@@H]1CCCN1C(=O)[C@H](CC(C)C)NC(=O)[C@@H](N)Cc1ccccc1)[C@@H](C)CC)C(C)C)C(C)C)C(C)C)C(C)C)C(=O)O` [FLPGILKVAANVVPGVI], the MIC [1] is reported as ≥ 512 µM, the MIC [2] is reported as ≥ 512 µM and the MIC [3] is reported as ≥ 512 µM. The MIC [4] was ≥ 512 µM, the MIC [5] was > 512 µM and the MIC [6] was ≥ 512 µM.

In the case of `CC[C@H](C)[C@H](NC(=O)[C@H](C)NC(=O)[C@H](CCCCN)NC(=O)[C@H](CC(C)C)NC(=O)[C@H](C)NC(=O)[C@H](Cc1c[nH]c2ccccc12)NC(=O)[C@H](CCCCN)NC(=O)[C@H](C)NC(=O)[C@H](CC(C)C)NC(=O)[C@@H](NC(=O)CNC(=O)[C@H](Cc1c[nH]c2ccccc12)NC(=O)[C@@H](N)Cc1ccccc1)[C@@H](C)O)C(=O)O` [FWGTLAKWALKAI], the MIC (Candida albicans CA1) is reported as 10 µM (≈ 15 µg/mL), the MIC [7] is reported as 10 µM (≈ 15 µg/mL) and the MIC [8] is reported as 10 µM and 20 µM. For the same molecule, the MIC [9] was 20 µM (≈ 30.1 µg/mL).

For `CC[C@H](C)[C@H](NC(=O)CN)C(=O)N[C@@H](Cc1cnc[nH]1)C(=O)NCC(=O)N[C@H](C(=O)N[C@H](C(=O)N[C@@H](CCCN=C(N)N)C(=O)N[C@@H](CO)C(=O)N[C@@H](Cc1ccccc1)C(=O)N[C@@H](CCSC)C(=O)N[C@@H](CCCN=C(N)N)C(=O)N[C@@H](CCSC)C(=O)N[C@@H](CC(C)C)C(=O)NCC(=O)N[C@@H](Cc1cnc[nH]1)C(=O)N[C@@H](CC(C)C)C(=O)NCC(=O)O)C(C)C)C(C)C` [GIHGVVRSFMRMLGHLG], the MIC [5] was 4.28 µM (≈ 8 µg/mL) and the MIC [10] was ≥ 34.3 µM.

Work on `CC[C@H](C)[C@H](NC(=O)[C@H](CCCCN)NC(=O)[C@H](CCCCN)NC(=O)[C@H](C)NC(=O)[C@H](CC(C)C)NC(=O)[C@H](C)NC(=O)[C@H](C)NC(=O)[C@H](CC(C)C)NC(=O)[C@H](C)NC(=O)[C@H](CCCCN)NC(=O)[C@H](CCCN=C(N)N)NC(=O)[C@H](CCCN=C(N)N)NC(=O)[C@H](CCCN=C(N)N)NC(=O)[C@H](CS)NC(=O)[C@H](Cc1ccc(O)cc1)NC(=O)[C@H](CC(C)C)NC(=O)[C@@H]1CCCN1C(=O)[C@H](CCCN=C(N)N)NC(=O)[C@H](CCCN=C(N)N)NC(=O)[C@H](CS)NC(=O)[C@H](CCC(N)=O)NC(=O)[C@@H](N)CCC(N)=O)C(=O)N[C@@H](CC(C)C)C(=O)O` [QQCRRPLYCRRRKALAALAKKIL] yielded an MIC [11] of 3.1 µM (≈ 8.54 µg/mL), an MIC [12] of 3.1 µM (≈ 8.54 µg/mL) and an MIC [13] of 3.1 µM (≈ 8.54 µg/mL).

`CC[C@H](C)[C@H](NC(=O)[C@H](CCCCN)NC(=O)[C@@H](N)CCCN=C(N)N)C(=O)N[C@@H](CCCCN)C(=O)N[C@H](C(=O)N[C@@H](Cc1ccc(O)cc1)C(=O)N[C@@H](CC(C)C)C(=O)N1CCC[C@H]1C(=O)N[C@@H](CCCN=C(N)N)C(=O)N[C@@H](CCSC)C(=O)N[C@@H](CCCCN)C(=O)O)C(C)C` [RKIKVYLPRMK] was tested, and the MIC [14] was 17.5 µM (≈ 25 µg/mL), the MIC [15] was 17.5 µM (≈ 25 µg/mL) and the MIC [16] was ≥ 69.8 µM. The MIC [17] was 17.5 µM (≈ 25 µg/mL), the MIC [18] was 17.5 µM (≈ 25 µg/mL) and the MIC [19] was 8.73 µM (≈ 12.5 µg/mL).

With `NC(=O)CC[C@H](NC(=O)[C@H](Cc1c[nH]c2ccccc12)NC(=O)[C@H](Cc1c[nH]c2ccccc12)NC(=O)[C@H](Cc1c[nH]c2ccccc12)NC(=O)[C@H](CCC(N)=O)NC(=O)[C@H](Cc1c[nH]c2ccccc12)NC(=O)[C@H](CCCN=C(N)N)NC(=O)[C@@H](N)CCCN=C(N)N)C(=O)N[C@@H](Cc1c[nH]c2ccccc12)C(=O)N[C@@H](CCCN=C(N)N)C(=O)N[C@@H](CCCN=C(N)N)C(N)=O` [RRWQWWWQWRR] the MIC [20] was 4 µM (≈ 7.32 µg/mL), the MIC [21] was 16 µM (≈ 29.3 µg/mL) and the MIC [22] was ≥ 64 µM. The MIC [23] was 4 µM (≈ 7.32 µg/mL), the MIC [24] was ≥ 64 µM and the MIC [25] was ≥ 64 µM. It also gave an MIC [26] of 8 µM (≈ 14.6 µg/mL), an MIC [27] of 4 µM (≈ 7.32 µg/mL) and an MIC [5] of 4 µM (≈ 7.32 µg/mL). The MIC (Escherichia coli UB1005) was 4 µM (≈ 7.32 µg/mL), the MIC [28] was ≥ 64 µM and the MIC [29] was 4 µM (≈ 7.32 µg/mL).

`CC[C@H](C)[C@H](NC(=O)CNC(=O)[C@H](CC(=O)O)NC(=O)CNC(=O)[C@H](CC(C)C)NC(=O)[C@H](CCCN=C(N)N)NC(=O)[C@H](CCCCN)NC(=O)[C@H](CC(C)C)NC(=O)[C@H](CC(C)C)NC(=O)[C@H](CO)NC(=O)[C@H](CCCN=C(N)N)NC(=O)[C@H](CCCN=C(N)N)NC(=O)[C@H](CCCCN)NC(=O)[C@@H](NC(=O)[C@H](CCCCN)NC(=O)[C@@H](N)CO)[C@@H](C)O)C(=O)N[C@@H](CCCN=C(N)N)C(=O)NCC(=O)N[C@@H](Cc1ccccc1)C(=O)N[C@@H](Cc1c[nH]c2ccccc12)C(=O)N[C@@H](CC(N)=O)C(=O)NCC(=O)N[C@@H](Cc1ccccc1)C(=O)N[C@@H](CCCN=C(N)N)C(=O)NCC(=O)N[C@@H](CCCN=C(N)N)C(=O)N[C@@H](CCCCN)C(=O)O` [SKTKRRSLLKRLGDGIRGFWNGFRGRK] gave an MIC (Pasteurella multocida) of 20.1 µM (≈ 64 µg/mL), an MIC [30] of 20.1 µM (≈ 64 µg/mL) and an MIC [31] of 20.1 µM (≈ 64 µg/mL). For the same molecule, the MIC (Streptococcus oralis) was 20.1 µM (≈ 64 µg/mL), the MIC [32] was 20.1 µM (≈ 64 µg/mL) and the MIC (Listeria monocytogenes) was 20.1 µM (≈ 64 µg/mL). For the same molecule, the MIC [23] was 10 µM and 6.27 µM, the MIC [33] was 20.1 µM (≈ 64 µg/mL) and the MIC (Streptococcus mutans) was 20.1 µM (≈ 64 µg/mL). For the same molecule, the MIC (Streptococcus equi) was 20.1 µM (≈ 64 µg/mL), the MIC (Klebsiella pneumoniae) was > 20.1 µM and the MIC [5] was > 20.1 µM. The MIC [34] was 20.1 µM (≈ 64 µg/mL), the MIC (Staphylococcus aureus MR) was 10 µM (≈ 32 µg/mL) and the MIC (Candida glabrata) was 20.1 µM (≈ 64 µg/mL). The MIC (Streptococcus salivarius) was 10 µM (≈ 32 µg/mL), the MIC [35] was 10 µM (≈ 32 µg/mL) and the MIC (Candida krusei ATCC 6258) was 20.1 µM (≈ 64 µg/mL). The MIC (Candida albicans) was > 20.1 µM.
